Assay results from US8202906B2, “Use of docosahexanoic acid as active substance for the treatment of lipodystrophy” (Proyecto Empresarial Brudy, S.L., priority 2002, dated 2012).
Values joined by “and” are separate entries in the source; they are usually repeats but may differ in a detail not shown here. Equal entries are not always repeated.

What was measured:
[1] = tested on: patients treated with DHA (lipodystrophy); assay: Example 2: 300-day monitoring of the four patients treated with DHA; type: in vivo, human; design: COL. / VLDL / TG / HDL / LDL: unit not given here; conditions: for COL. / HDL / LDL / TG / VLDL: individual patients 1-4
Description: From the four patients treated with DHA at elevated dosages (1.5 g/day), all of them have been monitored for 300 days and, although notable fluctuations are observed, especially regarding to the triglicerids (see Table 2), after 300 days of monitoring, the reduction's mean in the number of triglycerids with respect to the basal level is 66% and for the cholesterol is 28.0%.
All patients have improved their fat redistribution, from the point of view subjective and according to the skill's criterion.

[2] = tested on: HIV-infected patients under HAART regimen and presenting lipodystrophy syndrome; assay: Example 1: 3 months' administration to HIV-infected patients under HAART with lipodystrophy syndrome; type: in vivo, human; design: LDL / VLDL / COL. / TG / HDL: unit not given here; conditions: 4 grams/day
Procedure: Four HIV-infected patients under HAART regimen and presenting lipodystrophy syndrome were administered 4 grams/day of a tuna oil with a DHA content of 70%. After three months' administration of DHA to said patients, the following discoveries were made, even taking account of the short period of administration: • 1. […] Mean reduction of 56% in the plasma triglycerides number. • 3. Mean reduction of 25% in the total plasma cholesterol number. • 4. Mean increase of 9% in the plasma HDL cholesterol number. • 5. Mean reduction of 18% in the plasma LDL cholesterol number.

[3] = 1.5 g/day, after 300 days of monitoring, four patients
[4] = 3 months, mean of four patients
[5] = after 3 months of treatment, individual patients 1-4

Structure (SMILES): CC/C=C\C/C=C\C/C=C\C/C=C\C/C=C\C/C=C\CCC(=O)O [DHA, docosahexaenoic acid]
- drop of HDL cholesterol [1, 3]: 11.6%
- reduction's mean in the cholesterol with respect to the basal level [1, 3]: 28.0%
- reduction's mean in the number of triglycerids with respect to the basal level [1, 3]: 66%
- COL. ([1]; 15 days of treatment): 6.37 and 9.74 and 3.92 and 8.73
- HDL ([1]; 15 days of treatment): 1.7 and 0.98 and 1.05 and 1.03
- LDL ([1]; 15 days of treatment): 4.14 and 6.07 and 1.86 and 5.35
- TG ([1]; 15 days of treatment): 1.16 and 5.98 and 3.11 and 5.18
- VLDL ([1]; 15 days of treatment): 0.53 and 2.61 and 1.01 and 2.35
- COL. ([1]; 30 days of treatment): 6.16 and 8.4 and 4.07 and 8.5
- HDL ([1]; 30 days of treatment): 1.79 and 0.86 and 1.06 and 1.16
- LDL ([1]; 30 days of treatment): 3.7 and 4.3 and 2.0 and 5.0
- TG ([1]; 30 days of treatment): 1.35 and 6.9 and 3.09 and 5.74
- VLDL ([1]; 30 days of treatment): 0.62 and 3.18 and 0.97 and 2.26
- COL. ([1]; 60 days of treatment): 5.46 and 9.48 and 3.82 and 9.9
- HDL ([1]; 60 days of treatment): 1.57 and 0.91 and 1.05 and 0.98
- LDL ([1]; 60 days of treatment): 3.43 and 3.35 and 1.97 and 6.67
- TG ([1]; 60 days of treatment): 1 and 10.66 and 1.73 and 3.41
- VLDL ([1]; 60 days of treatment): 0.46 and 3.74 and 0.8 and 1.82
- COL. ([1]; 120 days of treatment): 5.49 and 8.24 and 3.47 and 13.63
- HDL ([1]; 120 days of treatment): 1.56 and 1.08 and 1.16 and 0.7
- LDL ([1]; 120 days of treatment): 3.26 and 4.6 and 1.61 and 1.46
- TG ([1]; 120 days of treatment): 1.45 and 6.36 and 1.51 and 31.7
- VLDL ([1]; 120 days of treatment): 0.67 and 2.56 and 0.7 and 9.67
- COL. ([1]; 180 days of treatment): 6.15 and 9.64 and 3.76 and 13.21
- HDL ([1]; 180 days of treatment): 1.56 and 1.04 and 0.94 and 1.48
- LDL ([1]; 180 days of treatment): 3.38 and 2.3 and 1.5 and 2.09
- TG ([1]; 180 days of treatment): 2.63 and 15.75 and 2.87 and 16.37
- VLDL ([1]; 180 days of treatment): 1.21 and 4.38 and 132 and 3.97
- COL. ([1]; 240 days of treatment): 5.7 and 8.1 and 4.04 and 5.33
- HDL ([1]; 240 days of treatment): 1.67 and 0.98 and 1.09 and 1.17
- LDL ([1]; 240 days of treatment): 3.3 and 4.93 and 2.1 and 3.16
- TG ([1]; 240 days of treatment): 1.59 and 5.36 and 1.85 and 2.18
- VLDL ([1]; 240 days of treatment): 0.73 and 2.12 and 0.85 and 1
- COL. ([1]; 300 days of treatment): 6.01 and 9.3 and 4.34 and 4.27
- HDL ([1]; 300 days of treatment): 1.23 and 1.08 and 0.89 and 1.22
- LDL ([1]; 300 days of treatment): 4.06 and 5.31 and 2.7 and 2.42
- TG ([1]; 300 days of treatment): 1.57 and 7.21 and 1.62 and 1.36
- VLDL ([1]; 300 days of treatment): 0.72 and 2.92 and 0.75 and 0.63
- Mean increase in the plasma HDL cholesterol number [2, 4]: 9%
- Mean reduction in the plasma LDL cholesterol number [2, 4]: 18%
- Mean reduction in the plasma triglycerides number [2, 4]: 56%
- Mean reduction in the total plasma cholesterol number [2, 4]: 25%
- COL. [2, 5]: 5.46 and 9.48 and 3.82 and 9.9
- HDL [2, 5]: 1.57 and 0.91 and 1.05 and 0.98
- LDL [2, 5]: 3.43 and 3.35 and 1.97 and 6.67
- TG [2, 5]: 1 and 10.66 and 1.73 and 3.41
- VLDL [2, 5]: 0.46 and 3.74 and 0.8 and 1.82
